The source of these data is patent publication US20040131545A1, “Amyloid plaque aggregation inhibitors and diagnostic imaging agents” (Trustees of the University of Pennsylvania, priority 2001, published 2004).

Bounds are passed on as bounds.

For one series, the target named is T1, aggregates of Aβ(1-42) (Homo sapiens, UniProt P05067).
T1 construct: The solid forms of peptides Aβ(1-40) and Aβ(1-42) were purchased; purchased Bachem (King of Prussia, Pa.)
In words: Inhibition of [125I]3 binding to aggregated Aβ(1-42) peptide in solution. Particulars: 25° C.; mean±SEM of three independent experiments; read-out: Inhibition constants (Ki) on ligand binding to aggregates of Aβ(1-42) vs [^125I]3. The protocol:
(§1) The solid forms of peptides Aβ(1-40) and Aβ(1-42) were purchased from Bachem (King of Prussia, Pa.). Aggregation of peptides were carried out by gently dissolving the peptide [0.5 mg/mL for Aβ(1-40) and 0.25 mg/mL for Aβ (1-42) in a buffer solution (pH 7.4) containing 10 mM sodium phosphate and 1 mM EDTA. The solutions were incubated at 37° C. for 36-42 h with gentle and constant shaking. Binding studies were carried out in 12×75 mm borosilicate glass tubes according to the procedure described with some modifications (Klunk, W. E., et al., Biol. Psychiatry 35:627 (1994)). Aggregated fibrils (10-50 nM in the final assay mixture) were added to the mixture containing […] of radioligands (0.01-0.5 nM) in 40% EtOH and 10% EtOH in a final volume of 1 mL for saturation studies. […] For inhibition studies, 1 mL of the reaction mixture contained […] of inhibitors (10-5-10-10 M in 10% EtOH) and 0.05 nM radiotracer in 40% EtOH. The mixture was incubated at room temperature for 3 h and the bound and the free radioactivity were separated by vacuum filtration through Whatman GF/B filters using a Brandel M-24R cell harvester followed by 2×3 mL washes of 10% ethanol at room temperature. Filters containing the bound I-125 ligand were counted in a gamma counter (Packard 5000) with 70% counting efficiency. The results of saturation and inhibition experiments were subjected to nonlinear regression analysis using software EBDA52 by which Kd and Ki values were calculated.
(§2) Values are the mean±SEM of three independent experiments, each in duplicates.

The target in the next series is T2, aggregates of Aβ(1-40) (Homo sapiens, UniProt P05067).
T2 construct: The solid forms of peptides Aβ(1-40) and Aβ(1-42) were purchased; purchased Bachem (King of Prussia, Pa.)
The series is described as follows: Inhibition of [125I]3 binding to aggregated Aβ(1-40) peptide in solution. Conditions: 25° C.; mean±SEM of three independent experiments; read-out: Inhibition constants (Ki) on ligand binding to aggregates of Aβ(1-40) vs [^125I]3. The protocol:
as §1, §2

A further series deals with fibrillar AP aggregates (Homo sapiens, UniProt P05067). Particulars: Mathis et al. 1997; read-out: inhibition constants (K′) for binding to fibrillar AP aggregates; cited from earlier work.
Series [1] is described as follows: Partition coefficient determination (1-octanol/buffer). The series is classed as physicochemical. Conditions: 1-octanol / 0.1 M phosphate buffer pH 7.4, [125I]tracer. As to the method: The test tube was vortexed for 3 min at room temperature, followed by centrifugation for 5 min. Two weighed samples (0.5 g each) from the 1-octanol and buffer layers were counted in a well counter. The partition coefficient was determined by calculating the ratio of cpm/g of 1-octanol to that of buffer. Samples from the 1-octanol layer were re-partitioned until consistent partitions of coefficient values were obtained. The measurement was done in triplicate and repeated three times.

Series [2] can be described thus: In vivo biodistribution in normal mice after iv injection. Also noted: species or system ICR mice. Conditions: for Initial brain uptake / time at which brain uptake peaked / maximum brain uptake: mice; for Initial brain uptake: after an iv injection; for time at which brain uptake peaked / maximum brain uptake / Blood / Brain / Heart / Liver: iv; for maximum brain uptake: peak at 60 min; for Blood / Brain / Heart / Liver: normal mice. As to the method:
While under ether anesthesia, 0.15 mL of a saline solution containing labeled agents ([…]) was injected directly into the tail vein of ICR mice (2-3 month-old, average weight 20-30 g). The mice were sacrificed by cardiac excision at various time points post injection. The organs of interest were removed and weighed, and the radioactivity was counted with an automatic gamma counter (Packard 5000). The percentage dose per organ was calculated by a comparison of the tissue counts to suitably diluted aliquots of the injected material. Total activities of blood and muscle were calculated under the assumption that they were 7% and 40% of the total body weight, respectively.

T1 sequence (P05067 672-713 limits assumed): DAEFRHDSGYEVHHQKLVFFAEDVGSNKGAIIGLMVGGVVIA
T2 sequence (P05067 672-711 limits assumed): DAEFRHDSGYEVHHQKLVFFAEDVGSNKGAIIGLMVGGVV
Sequence of fibrillar AP aggregates (P05067 672-711): as the sequence (P05067 672-711 limits assumed) above

As to `O=C(O)c1cc(/N=N/c2ccc(-c3ccc(/N=N/c4ccc(O)c(C(=O)O)c4)cc3)cc2)ccc1O` [Chrysamine G, reference compound], the Ki is over 2000 nM at aggregates of Aβ(1-42), over 1000 nM on aggregates of Aβ(1-40) and 370 nM on fibrillar AP aggregates.

With `CN(C)c1ccc(-c2nc3ccc(Br)cc3s2)cc1` [Compound 1, 2-(4′-Dimethylaminophenyl)-6-bromobenzothiazole], the Ki at aggregates of Aβ(1-42) was 0.8 ± 0.3 nM; on aggregates of Aβ(1-40), 1.9 ± 0.3 nM.

With `CN(C)c1ccc(-c2nc3ccc(I)cc3s2)cc1` [Compound 3, 2-(4′-Dimethylaminophenyl)-6-iodobenzothiazole], the Ki at aggregates of Aβ(1-42) stood at 2.2 ± 0.4 nM. Besides, the “Partition Coefficient (PC)” value in series [1] is 70. Moreover, in series [2], the Initial brain uptake is 0.67 % dose/organ, the “time at which brain uptake peaked” value stood at 60 min and the maximum brain uptake is given as 1.57 % dose/organ. For the same compound, the Ki on aggregates of Aβ(1-40) was found to be 0.9 ± 0.2 nM.

As to `CN1CCN(c2ccc(-c3nc4ccc(Br)cc4s3)cc2)CC1` [Compound 4, 2-[4′-(4″-Methylpiperazin-1-yl)-phenyl]-6-bromobenzothiazole], the figures for the Ki at aggregates of Aβ(1-42) and at aggregates of Aβ(1-40) were 5 ± 0.8 nM and 1.6 ± 0.5 nM, respectively.

Turning to `CN1CCN(c2ccc(-c3nc4ccc(I)cc4s3)cc2)CC1` [Compound 6a, 2-[4′-(4″-Methylpiperazin-1-yl)-phenyl]-6-iodobenzothiazole], the Ki at aggregates of Aβ(1-42) turned out to be 6.4 ± 0.7 nM. In addition, the “Partition Coefficient (PC)” value in series [1] stood at 312. For the same compound, in series [2], the Initial brain uptake was 1.50 % dose/organ, the “time at which brain uptake peaked” value is reported as 60 min and the maximum brain uptake is on record as 1.89 % dose/organ. Moreover, the Ki on aggregates of Aβ(1-40) is 5.4 ± 0.7 nM.

Take `CN(C)c1ccc(-c2nc3ccc([125I])cc3s2)cc1` [[^125I] Compound 3]: the Blood worked out at 15.74 ± 6.06 % dose/organ in series [2] (2 min); 3.26 ± 0.05 % dose/organ in series [2] (30 min); 3.79 ± 0.19 % dose/organ in series [2] (60 min (1 hr)); 1.44 ± 0.05 % dose/organ in series [2] (6 h); 0.29 ± 0.09 % dose/organ in series [2] (24 h). Moreover, the Brain turned out to be 0.67 ± 0.11 % dose/organ in series [2] (2 min); 0.97 ± 0.29 % dose/organ in series [2] (30 min); 1.57 ± 0.24 % dose/organ in series [2] (60 min (1 hr)); 0.65 ± 0.11 % dose/organ in series [2] (6 h); 0.04 ± 0.01 % dose/organ in series [2] (24 h). Also, the Heart is 1.79 ± 0.39 % dose/organ in series [2] (2 min); 0.20 ± 0.01 % dose/organ in series [2] (30 min); 0.17 ± 0.02 % dose/organ in series [2] (60 min (1 hr)); 0.05 ± 0.01 % dose/organ in series [2] (6 h); 0.01 ± 0.00 % dose/organ in series [2] (24 h). Further, the Liver was determined as 31.62 ± 2.38 % dose/organ in series [2] (2 min); 10.93 ± 2.34 % dose/organ in series [2] (30 min); 9.21 ± 3.05 % dose/organ in series [2] (60 min (1 hr)); 1.52 ± 0.30 % dose/organ in series [2] (6 h); 0.30 ± 0.07 % dose/organ in series [2] (24 h).

Take `CN1CCN(c2ccc(-c3nc4ccc([125I])cc4s3)cc2)CC1` [[^125I] Compound 6a]: the Blood in series [2] (2 min) is 8.02 ± 0.82 % dose/organ; in series [2] (30 min), 5.15 ± 0.23 % dose/organ; in series [2] (60 min (1 hr)), 4.16 ± 0.28 % dose/organ; in series [2] (6 h), 1.49 ± 0.26 % dose/organ; in series [2] (24 h), 0.41 ± 0.09 % dose/organ. Besides, the Brain is 1.50 ± 0.10 % dose/organ in series [2] (2 min); 1.59 ± 0.19 % dose/organ in series [2] (30 min); 1.89 ± 0.43 % dose/organ in series [2] (60 min (1 hr)); 1.08 ± 0.08 % dose/organ in series [2] (6 h); 0.91 ± 0.08 % dose/organ in series [2] (24 h). For the same compound, the Heart in series [2] (2 min) turned out to be 2.19 ± 0.43 % dose/organ; in series [2] (30 min), 0.69 ± 0.02 % dose/organ; in series [2] (60 min (1 hr)) it was 0.66 ± 0.06 % dose/organ; in series [2] (6 h), 0.22 ± 0.06 % dose/organ; in series [2] (24 h) it was 0.08 ± 0.01 % dose/organ. Moreover, the Liver is listed as 28.84 ± 3.77 % dose/organ in series [2] (2 min); 21.22 ± 5.86 % dose/organ in series [2] (30 min); 17.20 ± 2.49 % dose/organ in series [2] (60 min (1 hr)); 5.79 ± 1.24 % dose/organ in series [2] (6 h); 3.05 ± 0.87 % dose/organ in series [2] (24 h).
